# Assay results: article PMC10354055, “An optimized Nurr1 agonist provides disease-modifying effects in Parkinson’s disease models” (Nature Communications, 2023)
# “And” between values parts separate entries of the source, which are not always exact repeats. Equal values may be shown once.
# Key:
# N27-A cells = assay: Autophagic flux, Western blot LC3B and p62, N27-A cells; format: cell-based, rat; conditions: for Relative LC3B-II experession (normalized to β-actin): individual replicates; for autophagic flux (in words): N27-A
# Procedure: (§1) Experiments were confirmed by duplicate measurements of the same sample. Quantification of immunoreactive bands was performed using ImageJ software (NIH, Bethesda, MD, USA) and expressed as a relative ratio against β-actin.
# The band intensities were quantified using ImageJ and normalized against β-actin.
# [1] = tested on: AAV-αSyn-induced male mice; assay: Western blot of human-αSyn in SNpc, AAV-αSyn-injected mice; format: in vivo, mouse
# Procedure: as §1
# Adeno-associated viruses (AAVs) expressing GFP only or αSyn (wild-type or A53T) were kindly provided by Dr. Yoon Seong Kim from the University of Central Florida. Recombinant AAV vectors were produced using modified pAAV-IRES-hrGFP (Agilent) to express wild-type and mutant human αSyn under control of the CMV promoter. Viral particles (AAV2) were produced at the University of Iowa Viral Vector Core according to standard operating procedures (https://medicine.uiowa.edu/vectorcore/). Male C57BL/6 mice (8-10 weeks, 25-30 g; Jackson Laboratories) were randomly assigned to 7 groups including empty vector (GFP) + VEH, wild-type αSyn (αSyn^WT) + VEH, mutant αSyn (αSyn^A53T) + VEH, αSyn^WT + CQ, αSyn^A53T + CQ, αSyn^WT + 4A7C-301 and αSyn^A53T + 4A7C-301 (n = 8 per group). AAV vectors were delivered into the substantia nigra unilaterally by stereotaxic surgery. […] CQ (40 mg/kg/day) or 4A7C-301 (5 mg/kg/day) administration was started 4 weeks after AAV vector injections and continued for […] before sacrifice at 8 weeks after surgery.
# [2] = tested on: AAV-αSyn-induced male mice; assay: Olfactory discrimination test, AAV-αSyn-induced PD model mice; format: in vivo, mouse
# Description: Adeno-associated viruses (AAVs) expressing GFP only or αSyn (wild-type or A53T) were kindly provided by Dr. Yoon Seong Kim from the University of Central Florida. Recombinant AAV vectors were produced using modified pAAV-IRES-hrGFP (Agilent) to express wild-type and mutant human αSyn under control of the CMV promoter. Viral particles (AAV2) were produced at the University of Iowa Viral Vector Core according to standard operating procedures (https://medicine.uiowa.edu/vectorcore/). […] AAV vectors were delivered into the substantia nigra unilaterally by stereotaxic surgery.
# The olfactory discrimination test was designed based on Prediger et al.. Briefly, mice were placed in a chamber (40 (w) × 20 (d) × 20 (h) cm) segmented with two identical compartments containing fresh sawdust (non-familiar odor) on one side and unchanged sawdust (familiar odor; maintained for 3 days before the test) on the other side. Mice could choose between one or another area by freely passing through an open door, for 5 min. Mice movements were monitored with EthoVision XT version 7.0 (Noldus) and time (s) and distance (cm) traveled in each compartment were recorded and analyzed.
# full-length Nurr1 = target: T1, full-length Nurr1 (Mus musculus, UniProt Q06219); assay: Luciferase reporter assay, full-length Nurr1, MN9D cells; format: cell-based
# T1 construct: Luciferase assays using Nurr1-LBD (c) or full-length Nurr1 (d) in SK-N-BE(2)C cells; expressed in transfected cells; host or cells: SK-N-BE(2)C (human neuroblastoma); MN9D (murine dopaminergic)
# Description: Nurr1 transactivity was normalized to β-galactosidase activity.
# T1 sequence (Q06219 whole entry, the tested form may be a part): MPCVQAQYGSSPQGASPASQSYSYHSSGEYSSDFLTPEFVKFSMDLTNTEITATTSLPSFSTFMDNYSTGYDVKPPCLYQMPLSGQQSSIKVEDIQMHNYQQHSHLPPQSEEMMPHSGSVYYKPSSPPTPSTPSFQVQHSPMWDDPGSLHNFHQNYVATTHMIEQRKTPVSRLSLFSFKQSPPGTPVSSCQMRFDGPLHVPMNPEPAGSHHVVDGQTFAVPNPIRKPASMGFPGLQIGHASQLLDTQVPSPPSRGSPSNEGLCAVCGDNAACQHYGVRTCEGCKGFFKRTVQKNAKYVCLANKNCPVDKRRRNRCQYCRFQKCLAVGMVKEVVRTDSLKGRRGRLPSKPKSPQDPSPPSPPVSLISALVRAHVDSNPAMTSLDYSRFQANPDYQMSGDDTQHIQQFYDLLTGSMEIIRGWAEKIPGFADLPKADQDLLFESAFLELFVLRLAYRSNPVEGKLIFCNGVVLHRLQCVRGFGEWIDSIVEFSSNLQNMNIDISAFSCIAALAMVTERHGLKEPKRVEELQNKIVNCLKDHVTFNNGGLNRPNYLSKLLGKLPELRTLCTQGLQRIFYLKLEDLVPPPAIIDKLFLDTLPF
smiles,measurement,setting,value
"CCN1CCN(c2cc(N3CCN(CC)CC3)nc(NCCNc3ccnc4cc(Cl)ccc34)n2)CC1 [4A7C-301, N^1-(4,6-bis(4-ethylpiperazin-1-yl)pyrimidin-2-yl)-N^2-(7-chloroquinolin-4-yl)ethane-1,2-diamine]",Relative LC3B-II experession (normalized to β-actin),"N27-A cells; Figure 3f, w/ MPP+, 0h",0.779 and 0.690 and 0.799
same,Relative LC3B-II experession (normalized to β-actin),"N27-A cells; Figure 3f, w/ MPP+, 4h",1.160 and 0.971 and 1.153
same,Relative LC3B-II experession (normalized to β-actin),"N27-A cells; Figure 3f, w/o MPP+, 0h",0.728 and 0.654 and 0.714
same,Relative LC3B-II experession (normalized to β-actin),"N27-A cells; Figure 3f, w/o MPP+, 4h",0.866 and 0.789 and 0.873
same,Relative LC3B-II experession (normalized to β-actin),"N27-A cells; Figure 3g, w/ MPP+, 0h",1.116 and 1.094 and 1.285
same,Relative LC3B-II experession (normalized to β-actin),"N27-A cells; Figure 3g, w/ MPP+, 4h",0.639 and 0.745 and 0.861
same,Relative LC3B-II experession (normalized to β-actin),"N27-A cells; Figure 3g, w/o MPP+, 0h",1.157 and 1.166 and 1.326
same,Relative LC3B-II experession (normalized to β-actin),"N27-A cells; Figure 3g, w/o MPP+, 4h",0.499 and 0.504 and 0.579
same,autophagic flux (in words),N27-A cells; MPP+ 1 mM,significantly restored autophagy
same,autophagic flux (in words),N27-A cells; without MPP+,proceeded
same,accumulation of αSyn (in words),[1],significantly diminished
same,olfactory dysfunction (in words),[2]; αSynA53T-mice,significantly reversed
same,olfactory dysfunction (in words),"[2]; αSynWT-mice, 6 and 8 weeks after surgery",rescued olfactory dysfunction
same,Luciferase activity (fold),"full-length Nurr1; Fig. S1e, conc. 1 µM, replicates",4.17 fold and 4.227 fold and 4.16 fold
same,Luciferase activity (fold),"full-length Nurr1; Fig. S1e, conc. 10 µM, replicates",4.281 fold and 4.08 fold and 4.219 fold
same,Luciferase activity (fold),"full-length Nurr1; Fig. S1e, conc. 10-1 µM, replicates",2.744 fold and 2.808 fold and 2.876 fold
same,Luciferase activity (fold),"full-length Nurr1; Fig. S1e, conc. 10-2 µM, replicates",1.103 fold and 1.099 fold and 1.116 fold
same,Luciferase activity (fold),"full-length Nurr1; Fig. S1e, conc. 10-3 µM, replicates",1.064 fold and 1.034 fold and 1.025 fold
same,Luciferase activity (fold),"full-length Nurr1; Fig. S3b, 0.001 µM",1.073 fold and 1.1005 fold and 1.0596 fold
same,Luciferase activity (fold),"full-length Nurr1; Fig. S3b, 0.01 µM",1.226 fold and 1.227 fold and 1.236 fold
same,Luciferase activity (fold),"full-length Nurr1; Fig. S3b, 0.1 µM",2.808 fold and 2.776 fold and 2.787 fold
same,Luciferase activity (fold),"full-length Nurr1; Fig. S3b, 1 µM",4.245 fold and 4.359 fold and 4.273 fold
same,Luciferase activity (fold),"full-length Nurr1; Fig. S3b, 10 µM",4.295 fold and 4.314 fold and 4.305 fold
